Measured values published in patent publication US9809634B2, “Composition comprising branched multipeptide vaccine and vaccine comprising the same” (INDUSTRY FOUNDATION OF CHONNAM NATIONAL UNIVERSITY, priority 2015, dated 2017).

Tested on: T2 cell line expressing HLA-A2
Test: Binding capacity to T-lymphocyte of each subsequence residue (T2 cells, HLA-A2-FITC staining, flow cytometry)
Assay type: cell-based, human
Settings: T2 cells cultured overnight with peptide and beta2-microglobulin; FIG. 3; compared with the other subsequence residues of the same tumor antigen
Experimental: The binding capacity to T-lymphocyte, of each of the subsequence residues shown in Table 1 above, was measured (FIG. 3).
Measurement of binding capacity between T-lymphocyte and each of the subsequence residues
T2 cell line (Korea Cell Line Bank) is […] expressing HLA-A2. The peptide and beta2-microglobulin on T2 cells were cultured overnight, and the T2 cells were stained with antihuman HLA-A2-FITCmAb, and analyzed by a FACS Caliber flow cytometer and WinMDI software.
The binding capacity of subsequence residue was calculated from mean fluorescence with the peptide and mean fluorescence without the peptide according to the following Equation: […]

Sequence	binding capacity to T-lymphocyte
LLLFGLLGV (Peptide CD99-9) [SEQ ID NO: 10]	most excellent
LMLGEFLKL [SEQ ID NO: 9]	most excellent
